Data set [1] relates to Klebsiella pneumoniae HDBKP 9249. Nature of the data set: Minimum inhibitory concentration (broth microdilution, CLSI). The conditions noted are these: HDBKP9249. The class given is cell-based. The gist of the method:
(§1)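 CLSI broth microdilution; inoculum 2×10^5 CFU/mL in 1.02×CAMHB; compounds 2-fold serial, top 16/32/64 μg/mL; 35 ± 2 °C, 20-24 h, ambient air; MIC scored visually from growth.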
Background: Dilution methods test growth across graded concentrations, often in twofold steps.

The subject of data set [2] is Escherichia coli HDBEC 30016. The description is as above. The conditions noted are these: HDBEC30016. The format is cell-based. The gist of the method:
as §1

In data set [3] the test system is Klebsiella pneumoniae HDBKP 9153. Described as above. The format is cell-based. The conditions noted are these: HDBKP9153. The gist of the method:
as §1

The subject of data set [4] is Pseudomonas aeruginosa HDBPA 5679. Described as above. The class given is cell-based. The conditions noted are these: HDBPA5679. The gist of the method:
as §1

Data set [5] relates to metallo-β-lactamase-expressing Acinetobacter baumannii strain ABA-0003YK. The data set is described as above. The format is cell-based. Conditions: read-out: MIC A. baumannii ABA-0003YK. The gist of the method:
as §1

Data set [6] has as its system Escherichia coli HDBEC 30048. The description is as above. The class given is cell-based. Conditions: HDBEC30048. The gist of the method: as §1
The test system of data set [7] is Klebsiella pneumoniae HDBKP 30006. The description is as above. The class given is cell-based. The conditions noted are these: HDBKP30006. The gist of the method:
as §1

The test system of data set [8] is Proteus mirabilis HDBPM 40. The data set is described as above. The format is cell-based. The conditions noted are these: HDBPM40. The gist of the method:
as §1

For data set [9], the system named is Escherichia coli HDBEC 30008. Described as above. The class given is cell-based. Conditions: HDBEC30008. The gist of the method:
as §1

In data set [10] the test system is Enterobacter cloacae HDBECL 30030. The data set is described as above. The format is cell-based. Conditions: HDBECL30030. The gist of the method:
as §1

Data set [11] can be described thus: Pharmacokinetic evaluation of compounds in mice (tail vein injection). The format is in vivo, Male CD-1 (ICR) mice. Conditions: CD-1 (ICR), mouse, male CD-1 mice, intravenous injection, plasma; for half-life: read-out: T½ (converted); for Vd: read-out: Vss. On the procedure:
Male CD-1 (ICR) mice were purchased and then acclimatized in this laboratory for at least 3 days. […] Blood samples were collected from the saphenous vein at 0.0833 h, 0.25 h, 0.5 h, 1 h, 2 h, 4 h, 8 h and 24 h following the tail vein injection administration. The volume of blood collection at each time point of the blood collection was about 30 μL. The blood samples were placed in centrifuge tubes containing anticoagulant EDTA-K2 and centrifuged at 3,200 g at 4° C. for 10 min, and then the upper plasma samples were collected and preserved in a freezer at −70±10° C. for later tests.
1) To 1.5 mL centrifuge tubes were added a 6 μL aliquot of an unknown sample, a standard curve, a quality control, a dilution quality control, single blank and double blank samples.
2) Each sample (except for the double blank sample) was treated with 120 μL of IS1-containing precipitant (the double blank sample was treated with 120 μL of pure MeOH for precipitation), and the mixtures were well mixed (for at least 15 s) using a vortexer and centrifuged at 12,000 g at 4° C. for 15 min.
3) 60 μL of the supernatants were transferred to a 96-well plate and centrifuged at 4° C. at 3220 g for 5 min, and 6 p L of the supernatants were injected for LC-MS/MS quantitative analysis.
1) The 1 h-plasma samples from the 3 mice were diluted 10-fold: 2 p L of the samples were added to 18 p L of blank matrix.
2) The 0.0833 h to 0.5 h-plasma samples from the 3 mice were diluted 100-fold: 18 μL of blank matrix was added to 2 p L of the samples to obtain 10-fold diluted samples. 2 μL of the 10-fold diluted samples were added to 18 p L of blank matrix to obtain 100-fold diluted analysis samples.
LC-MS/MS analysis conditions: chromatography column: ACQUITY UPLC HSS T3 (2.1×50 mm, 1.8 μm); column temperature: 50° C.; mobile phase A: a 0.1% aqueous solution of formic acid; mobile phase B: a 0.1% solution of formic acid in acetonitrile; flowrate: 0.65 mL/min. Internal standard: verapamil (100 ng/mL)
The concentration of the compounds in plasma was measured by LC-MS/MS (LC-MS/MS-AK_Q-Trap 6500). The pharmacokinetic software WinNonlin [version: Phoenix™ WinNonlin®6.3, manufacturer: Pharsight Corporation] was used to calculate pharmacokinetic parameters (V-Noncompartmental model 201).

The text below walks through data of patent US20230110378A1, “MONOBACTAM COMPOUND AND USE THEREOF” (EVOPOINT BIOSCIENCES CO., LTD., priority 2019, published 2023).

Converted amounts (≈) assume the structure as drawn. Like-named read-outs stand apart in the source and are kept apart here.

In the case of `C[C@H]1[C@H](NC(=O)/C(=N\OC(C)(C)C(=O)O)c2csc(N)n2)C(=O)N1S(=O)(=O)O` [Aztreonam, reference compound], the MIC in data set [1], in data set [2], in data set [3], in [4], in [5] and in data set [6] was > 16 µg/mL throughout. Also, the minimal inhibitory concentration (MIC) (in general, the lowest concentration that inhibits growth of the organism) in [7] was > 16 µg/mL; in data set [8] it was 8 to 16 µg/mL (≈ 18.4 to 36.7 µM); in data set [9] it was 8 to 16 µg/mL (≈ 18.4 to 36.7 µM); in [10], > 16 µg/mL.

Regarding `CC(C)(O/N=C(\C(=O)N[C@@H]1C(=O)N(S(=O)(=O)O)[C@@H]1CNC(=O)c1cc([C@@H]2CCN(C(=O)c3cc(=O)c(O)cn3O)C2)no1)c1csc(N)n1)C(=O)O` [Compound I-7], the AUC (commonly concentration integrated over time) in [11] (dose 5 mg/kg) was determined as 4240 ng·h/mL. In data set [11] (dose 5 mg/kg), the clearance (usually the rate of elimination divided by the concentration) amounted to 19.6 mL/min/kg. Besides, the half-life in data set [11] (dose 5 mg/kg) is 16.2 min. The Vd in data set [11] (dose 5 mg/kg) was found to be 0.48 L/kg. The MIC in data set [1] was > 16 µg/mL; in [2] it was 4 to 8 µg/mL (≈ 5.21 to 10.4 µM); in data set [3] it was < 4 µg/mL; in data set [4], < 4 µg/mL; in [5] it was < 4 µg/mL; in [6], < 4 µg/mL. Also, the minimal inhibitory concentration (MIC) in data set [7] was > 16 µg/mL; in [8], < 4 µg/mL; in data set [9], < 4 µg/mL; in data set [10], < 4 µg/mL.

With `CC(C)(O/N=C(\C(=O)N[C@@H]1C(=O)N(S(=O)(=O)O)[C@@H]1CNC(=O)c1cc([C@@H]2CCN(C(=O)c3ccc(O)c(O)c3Cl)C2)no1)c1csc(N)n1)C(=O)O` [Compound I-27], the MIC in data set [1] is 4 to 8 µg/mL (≈ 5.09 to 10.2 µM); in data set [2] it was < 4 µg/mL; in data set [3], < 4 µg/mL; in data set [4], < 4 µg/mL; in data set [5] it was < 4 µg/mL; in data set [6] it was < 4 µg/mL. Also, the minimal inhibitory concentration (MIC) is 4 to 8 µg/mL (≈ 5.09 to 10.2 µM) in data set [7], < 4 µg/mL in [8], < 4 µg/mL in data set [9] and < 4 µg/mL in data set [10].

Take `C[n+]1cc(-c2ncc(C(=O)NC[C@@H]3[C@H](NC(=O)/C(=N\OC4(C(=O)O)CC4)c4csc(N)n4)C(=O)N3S(=O)(=O)O)s2)cn1CCCNC(=O)c1ccc(O)c(O)c1Cl` [Compound I-28]: the MIC in [1], in [2], in data set [3], in data set [4], in data set [5] and in data set [6] was < 4 µg/mL in each case. Further, the MIC in data set [7] is 4 to 8 µg/mL; in [8], < 4 µg/mL; in data set [9] it was < 4 µg/mL; in data set [10] it was < 4 µg/mL.

As to `CC(C)(O/N=C(\C(=O)N[C@@H]1C(=O)N(S(=O)(=O)O)[C@@H]1CNC(=O)c1cnc([C@@H]2CCN(C(=O)c3ccc(O)c(O)c3Cl)C2)s1)c1csc(N)n1)C(=O)O` [Compound I-30], the MIC in [1] was 4 to 8 µg/mL (≈ 4.99 to 9.98 µM); in data set [2] it was < 4 µg/mL; in [3], < 4 µg/mL; in data set [4], < 4 µg/mL; in [5], < 4 µg/mL; in data set [6], < 4 µg/mL. Further, the MIC in [7] was 4 to 8 µg/mL (≈ 4.99 to 9.98 µM); in data set [8], < 4 µg/mL; in data set [9] it was < 4 µg/mL; in data set [10] it was < 4 µg/mL.

For `CC(C)(O/N=C(\C(=O)N[C@@H]1C(=O)N(S(=O)(=O)O)[C@@H]1CNC(=O)c1cc(C2CC[N+](C)(CCNC(=O)c3ccc(O)c(O)c3Cl)C2)no1)c1csc(N)n1)C(=O)O` (stereo partly drawn) [Compound I-32], the MIC in data set [1] was < 4 µg/mL; in data set [2], 4 to 8 µg/mL; in data set [3], < 4 µg/mL; in [4], < 4 µg/mL; in data set [5] it was < 4 µg/mL; in data set [6], < 4 µg/mL. The MIC was 8 to 16 µg/mL in data set [7], < 4 µg/mL in data set [8], < 4 µg/mL in data set [9] and < 4 µg/mL in data set [10].

`C[n+]1cc(-c2ncc(C(=O)NC[C@@H]3[C@H](NC(=O)/C(=N\OC(C)(C)C(=O)O)c4csc(N)n4)C(=O)N3S(=O)(=O)O)s2)cn1CCCNC(=O)c1ccc(O)c(O)c1Cl` [Compound I-33]: the MIC in [1] is 4 to 8 µg/mL; in data set [2] it was < 4 µg/mL; in [3], < 4 µg/mL; in [4], < 4 µg/mL; in data set [5], < 4 µg/mL; in [6], < 4 µg/mL. Moreover, the MIC in [7] is 8 to 16 µg/mL; in [8] it was < 4 µg/mL; in data set [9], < 4 µg/mL; in data set [10], < 4 µg/mL.

Compound `Cc1c(C(=O)N2CC[C@@H](c3cc(C(=O)NC[C@@H]4[C@H](NC(=O)/C(=N\OC(C)(C)C(=O)O)c5csc(N)n5)C(=O)N4S(=O)(=O)O)on3)C2)n(O)c(C)c(O)c1=O` [Compound I-44] gave an exposure (AUC) in data set [11] (dose 10 mg/kg) of 17300 ng·h/mL. For the same compound, the clearance in data set [11] (dose 10 mg/kg) worked out at 9.61 mL/min/kg. In addition, the half-life in [11] (dose 10 mg/kg) is 37.8 min. Also, the Vd in [11] (dose 10 mg/kg) came out at 0.19 L/kg. In addition, the MIC in [1] is 8 to 16 µg/mL (≈ 10.1 to 20.1 µM); in data set [2], 4 to 8 µg/mL (≈ 5.03 to 10.1 µM); in [3], < 4 µg/mL; in data set [4] it was < 4 µg/mL; in data set [6], < 4 µg/mL; in [7], 8 to 16 µg/mL (≈ 10.1 to 20.1 µM). The MIC in [8], in [9] and in data set [10] was < 4 µg/mL throughout.
